# Literature values as cited in US20080146444A1, “Method and compositions for improving plant growth” (Polymer Ventures, Inc., priority 2006, published 2008).
# How the values were obtained:
# [1] = system: Xylella fastidiosa; details: 62.5 ppm
# [2] = system: cucumber seed radicle; details: levels as low as 7-174 ppm (0.00002 M to 0.0005 M)
# [3] = system: plant; details: applied at 14 ppm to 1400 ppm (0.1-10 millimolar)
smiles,measurement,setting,value
CC(C)=CCCC(C)=CC=O [citral],kill of Xylella fastidiosa,[1],incomplete kill
CC(C)C1CCC(C)(O)C([N+](C)(C)C2CCCC2)C1.[Br-] (stereo not shown) [cyclopentyl dimethyl (1-hydroxy-p-menth-2-yl)ammonium bromide],cucumber seed radicle growth,[2],inhibited
C=C(C)[C@H]1CC=C(C)CC1 [limonene],plant primary root growth,[3],no improvement
same,seed germination,[3],no improvement
